Measurements published in patent US12649751B2 (Arcus Biosciences, Inc., priority 2022, dated 2026).

The compounds below were run against HPK1 (Homo sapiens, UniProt Q92918) (assay: HPK1 Biochemical Assay (ADP-Glo luminescence; low ATP 10 μM or high ATP 200 μM)). Settings: 2 nM HPK1, 10 μM ATP; read-out: Biochemical Potency (low ATP).
Chain of HPK1 (Q92918 whole entry, species assumed): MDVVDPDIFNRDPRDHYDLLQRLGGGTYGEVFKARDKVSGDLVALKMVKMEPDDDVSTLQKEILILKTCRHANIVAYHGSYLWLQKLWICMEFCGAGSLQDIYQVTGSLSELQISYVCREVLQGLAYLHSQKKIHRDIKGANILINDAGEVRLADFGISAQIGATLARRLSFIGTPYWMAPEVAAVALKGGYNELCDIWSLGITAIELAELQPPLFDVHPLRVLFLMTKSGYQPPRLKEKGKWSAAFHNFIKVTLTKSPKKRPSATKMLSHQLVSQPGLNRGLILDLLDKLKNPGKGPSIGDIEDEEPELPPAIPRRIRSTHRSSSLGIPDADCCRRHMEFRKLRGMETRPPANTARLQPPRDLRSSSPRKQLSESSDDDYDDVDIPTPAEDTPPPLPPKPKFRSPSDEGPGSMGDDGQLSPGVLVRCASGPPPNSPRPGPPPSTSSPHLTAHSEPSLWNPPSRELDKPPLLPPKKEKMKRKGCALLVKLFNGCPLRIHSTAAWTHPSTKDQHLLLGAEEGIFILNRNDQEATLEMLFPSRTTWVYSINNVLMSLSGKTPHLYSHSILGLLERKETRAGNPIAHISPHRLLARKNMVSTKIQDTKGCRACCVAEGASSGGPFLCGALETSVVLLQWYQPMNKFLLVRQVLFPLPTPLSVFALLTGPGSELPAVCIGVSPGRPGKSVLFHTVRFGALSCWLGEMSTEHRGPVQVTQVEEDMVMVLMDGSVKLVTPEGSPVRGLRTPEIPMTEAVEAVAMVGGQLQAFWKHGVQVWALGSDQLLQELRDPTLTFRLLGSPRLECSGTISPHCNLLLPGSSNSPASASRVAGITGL

Row | SMILES | IC50 [nM]
1 | CC(C)c1ccc(Nc2cc3nc(-n4cccn4)sc3cn2)nc1CN1CCCC1 [Example 228, 5-(Propan-2-yl)-N-[2-(1H-pyrazol-1-yl)-[1,3]thiazolo[5,4-c]pyridin-6-yl]-6-[(pyrrolidin-1-yl)methyl]pyridin-2-amine] | < 100
2 | Cc1cccnc1-c1nc2cc(Nc3cccc(N4C[C@@H]5CCN(C)[C@@H]5C4)n3)ncc2s1 [Example 111, 6-[(3aS,6aS)-1-Methyl-octahydropyrrolo[3,4-b]pyrrol-5-yl]-N-[2-(3-methylpyridin-2-yl)-[1,3]thiazolo[5,4-c]pyridin-6-yl]pyridin-2-amine] | < 100
3 | Cc1cccnc1-c1nc2cc(Nc3cccc(N4C[C@@H]5C[C@H]4CN5C4CCOCC4)n3)ncc2s1 [Example 117, N-[2-(3-Methylpyridin-2-yl)-[1,3]thiazolo[5,4-c]pyridin-6-yl]-6-[(1S,4S)-5-(oxan-4-yl)-2,5-diazabicyclo[2.2.1]heptan-2-yl]pyridin-2-amine] | < 100
4 | CN(C)S(=O)(=O)c1cccc(-c2nc3cc(Nc4cccc(N5C[C@@H]6C[C@H]5CN6)n4)ncc3s2)c1 [Example 293] | < 100
5 | Cc1cc(Nc2cc3nc(-c4ccnc(C)c4)sc3cn2)nc(N2CCC(C)(N)C2)c1 (centres unmarked) [Example 73, 6-(3-Amino-3-methylpyrrolidin-1-yl)-4-methyl-N-[2-(2-methylpyridin-4-yl)-[1,3]thiazolo[5,4-c]pyridin-6-yl]pyridin-2-amine] | < 100
6 | Cc1ccc(Nc2cc3nc(-c4ncccc4C)sc3cn2)nc1CN1CC[C@@H](F)C1 [Example 42, 6-{[(3R)-3-Fluoropyrrolidin-1-yl]methyl}-5-methyl-N-[2-(3-methylpyridin-2-yl)-[1,3]thiazolo[5,4-c]pyridin-6-yl]pyridin-2-amine] | < 100
7 | Fc1ccc(-c2nc3cc(Nc4ccc(N5CCOCC5)c(CN5CCCC5)n4)ncc3s2)cc1 [Example 22, N-[2-(4-Fluorophenyl)-[1,3]thiazolo[5,4-c]pyridin-6-yl]-5-(morpholin-4-yl)-6-[(pyrrolidin-1-yl)methyl]pyridin-2-amine] | < 100
8 | Cc1cccnc1-c1nc2cc(Nc3ccc(C(F)(F)F)c(CN4CCCC4)n3)ncc2s1 [Example 59, N-[2-(3-Methylpyridin-2-yl)-[1,3]thiazolo[5,4-c]pyridin-6-yl]-6-[(pyrrolidin-1-yl)methyl]-5-(trifluoromethyl)pyridin-2-amine] | 100 to 1000
9 | FC1(F)CCN(Cc2nc(Nc3cc4nc(-c5ccncc5)sc4cn3)ccc2C2CCOCC2)C1 [Example 218, 6-[(3,3-Difluoropyrrolidin-1-yl)methyl]-5-(oxan-4-yl)-N-[2-(pyridin-4-yl)-[1,3]thiazolo[5,4-c]pyridin-6-yl]pyridin-2-amine] | < 100
10 | Cc1cc(Nc2cc3nc(N4CCOCC4)sc3cn2)nc(O[C@H]2CCNC2)c1 [Example 191, 4-Methyl-N-[2-(morpholin-4-yl)-[1,3]thiazolo[5,4-c]pyridin-6-yl]-6-((3S)-pyrrolidin-3-yloxy)pyridin-2-amine] | < 100
11 | Cc1nccn1-c1nc2cc(Nc3ccc(C4CCOCC4)c(CN4CCCC4)n3)ncc2s1 [Example 239, N-[2-(2-Methyl-1H-imidazol-1-yl)-[1,3]thiazolo[5,4-c]pyridin-6-yl]-5-(oxan-4-yl)-6-[(pyrrolidin-1-yl)methyl]pyridin-2-amine] | < 100
12 | Cc1cccnc1-c1nc2cc(Nc3ccc(F)c(CN4CCCC4)n3)ncc2s1 [Example 61, 5-Fluoro-N-[2-(3-methylpyridin-2-yl)-[1,3]thiazolo[5,4-c]pyridin-6-yl]-6-[(pyrrolidin-1-yl)methyl]pyridin-2-amine] | < 100
13 | CN(C)Cc1nc(Nc2cc3nc(NC(=O)c4c(F)cccc4F)sc3cn2)ccc1N1CCOCC1 [Example 282, N-[6-({6-[(Dimethylamino)methyl]-5-(morpholin-4-yl)pyridin-2-yl}amino)-[1,3]thiazolo[5,4-c]pyridin-2-yl]-2,6-difluorobenzamide] | < 100
14 | Cc1ccc(Nc2cc3nc(-c4cnn(C5CCOC5)c4)sc3cn2)nc1CN1CCCC1 (centres unmarked) [Example 38, 5-Methyl-N-{2-[1-(oxolan-3-yl)-1H-pyrazol-4-yl]-[1,3]thiazolo[5,4-c]pyridin-6-yl}-6-[(pyrrolidin-1-yl)methyl]pyridin-2-amine] | < 100
15 | Cc1cc(Nc2cc3nc(-c4ccnc(C)c4)sc3cn2)nc(OC2CNCC2(F)F)c1 (centres unmarked) [Example 171, 6-[(4,4-Difluoropyrrolidin-3-yl)oxy]-4-methyl-N-[2-(2-methylpyridin-4-yl)-[1,3]thiazolo[5,4-c]pyridin-6-yl]pyridin-2-amine] | < 100
16 | Cc1cc(Nc2cc3nc(-c4ccnc(C)c4)sc3cn2)nc(O[C@H]2CCNC2)c1 [Example 168, 4-Methyl-N-[2-(2-methylpyridin-4-yl)-[1,3]thiazolo[5,4-c]pyridin-6-yl]-6-[(3S)-pyrrolidin-3-yloxy]pyridin-2-amine] | < 100
17 | COC1CCN(c2nc3cc(Nc4cc(C)cc(O[C@H]5CCNC5)n4)ncc3s2)CC1 [Example 190, N-[2-(4-Methoxypiperidin-1-yl)-[1,3]thiazolo[5,4-c]pyridin-6-yl]-4-methyl-6-((3S)-pyrrolidin-3-yloxy)pyridin-2-amine] | < 100
18 | Cc1cc(Nc2cc3nc(N4CCC(O)CC4)sc3cn2)nc(O[C@H]2CCNC2)c1 [Example 189, 1-(6-{[4-Methyl-6-((3S)-pyrrolidin-3-yloxy)pyridin-2-yl]amino}-[1,3]thiazolo[5,4-c]pyridin-2-yl)piperidin-4-ol] | < 100
19 | Cc1cccnc1-c1nc2cc(Nc3ccc(C)c(N4C[C@H](N)C[C@@H]4CO)n3)ncc2s1 [Example 67, [(2R,4R)-4-Amino-1-(3-methyl-6-{[2-(3-methylpyridin-2-yl)-[1,3]thiazolo[5,4-c]pyridin-6-yl]amino}pyridin-2-yl)pyrrolidin-2-yl]methanol] | < 100
20 | Cc1cc(Nc2cc3nc(C4CCOCC4)sc3cn2)nc(O[C@H]2CCNC2)c1 [Example 184, 4-Methyl-N-[2-(oxan-4-yl)-[1,3]thiazolo[5,4-c]pyridin-6-yl]-6-[(3S)-pyrrolidin-3-yloxy]pyridin-2-amine] | < 100
21 | CN1C[C@@H]2C[C@H]1CN2c1cncc(Nc2cc3nc(-c4cccc(C(=O)N5CCCC5)c4)sc3cn2)n1 [Example 147, 6-[(1S,4S)-5-Methyl-2,5-diazabicyclo[2.2.1]heptan-2-yl]-N-{2-[3-(pyrrolidine-1-carbonyl)phenyl]-[1,3]thiazolo[5,4-c]pyridin-6-yl}pyrazin-2-amine] | < 100
22 | Cc1cc(Nc2cc3nc(-c4ccnn4C)sc3cn2)nc(O[C@H]2CCNC2)c1 [Example 181, 4-Methyl-N-[2-(1-methyl-1H-pyrazol-5-yl)-[1,3]thiazolo[5,4-c]pyridin-6-yl]-6-[(3S)-pyrrolidin-3-yloxy]pyridin-2-amine] | < 100
23 | c1cc(C2CCOCC2)c(CN2CCCC2)nc1Nc1cc2nc(N3C[C@H]4C[C@@H]3CO4)sc2cn1 [Example 238, N-{2-[(1R,4R)-2-Oxa-5-azabicyclo[2.2.1]heptan-5-yl]-[1,3]thiazolo[5,4-c]pyridin-6-yl}-5-(oxan-4-yl)-6-[(pyrrolidin-1-yl)methyl]pyridin-2-amine] | 100 to 1000
24 | Fc1cccnc1-c1nc2cc(Nc3ccc(N4CCOCC4)c(CN4CCCC4)n3)ncc2s1 [Example 8, N-[2-(3-Fluoropyridin-2-yl)-[1,3]thiazolo[5,4-c]pyridin-6-yl]-5-(morpholin-4-yl)-6-[(pyrrolidin-1-yl)methyl]pyridin-2-amine] | < 100
25 | Cc1cccnc1-c1nc2cc(Nc3cccc(CN4CCCC4)n3)ncc2s1 [Example 52, N-[2-(3-Methylpyridin-2-yl)-[1,3]thiazolo[5,4-c]pyridin-6-yl]-6-[(pyrrolidin-1-yl)methyl]pyridin-2-amine] | < 100
26 | CCNCc1nc(Nc2cc3nc(-c4c(C)cccc4F)sc3cn2)ccc1N1CCC(F)(F)C1 [Example 279, 5-(3,3-Difluoropyrrolidin-1-yl)-6-[(ethylamino)methyl]-N-[2-(2-fluoro-6-methylphenyl)-[1,3]thiazolo[5,4-c]pyridin-6-yl]pyridin-2-amine] | < 100
27 | CN1C[C@@H]2C[C@H]1CN2c1nccc(Nc2cc3nc(-c4ccnc(N5CC[C@H](O)C5)c4)sc3cn2)n1 [Example 266, (3S)-1-{4-[6-({2-[(1S,4S)-5-Methyl-2,5-diazabicyclo[2.2.1]heptan-2-yl]pyrimidin-4-yl}amino)-[1,3]thiazolo[5,4-c]pyridin-2-yl]pyridin-2-yl}pyrrolidin-3-ol] | < 100
28 | Cc1cccnc1-c1nc2cc(Nc3ccc(N4CCC(F)(F)C4)c(C(C)(C)N)n3)ncc2s1 [Example 272, 6-(2-Aminopropan-2-yl)-5-(3,3-difluoropyrrolidin-1-yl)-N-[2-(3-methylpyridin-2-yl)-[1,3]thiazolo[5,4-c]pyridin-6-yl]pyridin-2-amine] | < 100
29 | Fc1cccc(F)c1-c1nc2cc(Nc3ccc(N4CCC(F)(F)C4)c(CN4CCCC4)n3)ncc2s1 [Example 11, N-[2-(2,6-Difluorophenyl)-[1,3]thiazolo[5,4-c]pyridin-6-yl]-5-(3,3-difluoropyrrolidin-1-yl)-6-[(pyrrolidin-1-yl)methyl]pyridin-2-amine] | 100 to 1000

Same assay, conditions: HPK1 ADP-Glo assay, high ATP (200 μM ATP, 5 nM HPK1); read-out: Biochemical Potency (high ATP)

Row | SMILES | IC50 [nM]
30 | CC[C@@H]1COCCN1c1cncc(-c2nc3cc(Nc4cc(C)nc(N5C[C@@H]6C[C@H]5CN6CC)n4)ncc3s2)c1 [Example 473] | < 100
31 | Cc1cc(Nc2cc3nc(-c4cccc(C(=O)N(C)C[C@@H]5CCOC5)c4)sc3cn2)nc(N2C[C@@H]3C[C@H]2CN3CCO)n1 [Example 557] | < 100

Same assay, conditions: HPK1 ADP-Glo assay, low ATP (10 μM ATP, 2 nM HPK1); read-out: Biochemical Potency (low ATP)

Row | SMILES | IC50 [nM]
32 | CS(=O)(=O)Nc1cccc(-c2nc3cc(Nc4cccc(N5C[C@@H]6C[C@H]5CN6)n4)ncc3s2)c1 [Example 326] | < 100
33 | Cc1ccnn1-c1nc2cc(Nc3ccc4c(n3)C(C)(N)CC4)ncc2s1 (centres unmarked) [Example 579] | < 100
34 | CN1C[C@@H]2C[C@H]1CN2c1nccc(Nc2cc3nc(-c4cccc(C(C)(C)O)c4)sc3cn2)n1 [Example 419] | < 100
35 | CN1C[C@@H]2C[C@H]1CN2c1nccc(Nc2cc3nc(N4CCc5ccncc5C4)sc3cn2)n1 [Example 427] | 100 to 1000
